Results taken from ChEMBL document CHEMBL1143352, “Structural evolutions of salicylaldoximes as selective agonists for estrogen receptor beta” (J Med Chem, 2009).
pEC50, pKi: −log10 of the molar value. Where “and” joins values, the source holds several entries; their conditions need not be identical. Identical values can stand only once.

What was measured:
Estrogen receptor beta [1] = target: T1, Estrogen receptor beta (Homo sapiens, UniProt Q92731); assay: Displacement of [3H]estradiol from full-length human estrogen receptor beta by radiometric assay relative to estradiol
T1 sequence (Q92731 whole entry): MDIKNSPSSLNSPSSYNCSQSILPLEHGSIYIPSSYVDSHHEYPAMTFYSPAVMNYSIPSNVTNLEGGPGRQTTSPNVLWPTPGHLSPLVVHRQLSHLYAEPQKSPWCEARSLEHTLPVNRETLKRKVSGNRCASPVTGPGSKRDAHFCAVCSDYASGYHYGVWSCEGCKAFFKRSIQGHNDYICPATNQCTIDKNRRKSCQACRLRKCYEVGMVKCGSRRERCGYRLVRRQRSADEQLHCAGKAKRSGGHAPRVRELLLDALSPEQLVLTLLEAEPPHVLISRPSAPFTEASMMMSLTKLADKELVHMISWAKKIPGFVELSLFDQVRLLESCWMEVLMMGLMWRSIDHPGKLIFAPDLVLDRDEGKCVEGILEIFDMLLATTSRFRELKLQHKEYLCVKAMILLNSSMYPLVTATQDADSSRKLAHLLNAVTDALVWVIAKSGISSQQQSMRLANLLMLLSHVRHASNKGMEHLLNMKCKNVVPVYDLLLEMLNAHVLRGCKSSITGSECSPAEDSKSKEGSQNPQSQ

Homo sapiens = organism: Homo sapiens; assay: Ratio of relative binding affinity for full-length human estrogen receptor beta to ratio of relative binding affinity for full length human estrogen receptor alpha
Estrogen receptor beta [2] = target: T1, Estrogen receptor beta
Estrogen receptor = target: T2, Estrogen receptor (Homo sapiens, UniProt P03372)
T2 sequence (P03372 whole entry): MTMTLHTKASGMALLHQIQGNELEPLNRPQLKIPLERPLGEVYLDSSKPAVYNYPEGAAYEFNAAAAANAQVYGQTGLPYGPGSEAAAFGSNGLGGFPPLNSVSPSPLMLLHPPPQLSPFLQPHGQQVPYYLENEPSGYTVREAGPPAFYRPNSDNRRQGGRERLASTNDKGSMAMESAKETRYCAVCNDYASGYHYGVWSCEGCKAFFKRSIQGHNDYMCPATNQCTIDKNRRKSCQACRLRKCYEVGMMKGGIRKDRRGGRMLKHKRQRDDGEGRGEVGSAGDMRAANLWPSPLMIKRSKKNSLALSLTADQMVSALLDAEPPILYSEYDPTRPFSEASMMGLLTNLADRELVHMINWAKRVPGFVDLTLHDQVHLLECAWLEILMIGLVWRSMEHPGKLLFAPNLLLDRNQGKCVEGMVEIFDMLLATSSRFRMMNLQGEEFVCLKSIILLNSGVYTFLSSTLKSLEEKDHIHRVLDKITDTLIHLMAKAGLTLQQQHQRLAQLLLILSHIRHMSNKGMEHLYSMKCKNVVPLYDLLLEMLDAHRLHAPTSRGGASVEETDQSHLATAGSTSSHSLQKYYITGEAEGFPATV
Description: Agonist activity at full-length human estrogen receptor alpha expressed in human HEC1 cells assessed as transcriptional activation after 24 hrs by luciferase reporter gene assay

Estrogen receptor beta [3] = target: T1, Estrogen receptor beta; assay: Agonist activity at full-length human estrogen receptor beta expressed in human HEC1 cells assessed as transcriptional activation after 24 hrs by luciferase reporter gene assay relative to estradiol; assay type: functional, cell-based; settings: HEC-1

| SMILES | Activity (Estrogen receptor beta [1]) [%] | Ratio (Homo sapiens) | pEC50 (Estrogen receptor beta [2]) | pEC50 (Estrogen receptor) | pKi (Estrogen receptor beta [1]) | Activity (Estrogen receptor beta [3]) [%] |
| --- | --- | --- | --- | --- | --- | --- |
| COc1ccc(-c2ccc(/C(C)=N/O)c(O)c2Cl)cc1F | 0.002 | – | – | – | – | – |
| O/N=C/c1ccc(-c2ccc(O)cc2)cc1O | 0.553 | 79 | – | – | – | – |
| O/N=C/c1cc(-c2ccc(O)cc2)ccc1O | 2.64 | 41 | 8.00 | 7.77 and 8.00 | – | – |
| O/N=C/c1ccc(-c2ccc(O)c(F)c2)c(Cl)c1O | 7.01 | 62 | 8.32 | 7.72 | 8.15 | > 85 |
| COc1ccc(-c2ccc(O)c(/C=N/O)c2)cc1 | 0.011 | 3.7 | – | – | – | – |
| C/C(=N\O)c1ccc(-c2ccc(O)cc2)c(Cl)c1O | 0.123 | 10 | – | – | – | – |
| COc1ccc(-c2ccc(/C(C)=N/O)c(O)c2Cl)cc1 | 0.002 | – | – | – | – | – |
| O/N=C/c1cc(-c2ccc(O)c(F)c2)ccc1O | 0.97 | 46 | – | – | – | – |
| C/C(=N\O)c1ccc(-c2ccc(O)c(F)c2)c(Cl)c1O | 0.077 | 13 | – | – | – | – |
| COc1ccc(-c2ccc(/C=N/O)c(O)c2Cl)cc1F | 0.011 | 1.8 | – | – | – | – |
| COc1ccc(-c2ccc(O)c(/C=N/O)c2)cc1F | 0.013 | 1.9 | – | – | – | – |
